Results taken from US8802597B2, “Herbicidal pyrimidines” (E I du Pont de Nemours and Company, priority 2003, dated 2014).

Assays:
Assay in all cases: Test C pre/postemergence
Assay type in all cases: in vivo
[1] = test system: velvetleaf (Abutilon theophrasti); details: for Velvetleaf plant response rating: scale 0 to 100 (0 no effect, 100 complete control)
Summary of the method: (§1)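 Visual injury ratings, 0 (no effect) to 100 (complete control), made 12 to 14 days after treatment by comparison with untreated controls. Greenhouse plants received test chemical in a surfactant-containing non-phytotoxic solvent, either preemergence on planted seeds or postemergence at the 1- to 4-leaf stage.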

[2] = test system: giant foxtail (Setaria faberii); details: for Foxtail, Giant plant response rating: scale 0 to 100 (0 no effect, 100 complete control)
Summary of the method: as §1

soybean (Glycine max) = details: for Soybean plant response rating: scale 0 to 100 (0 no effect, 100 complete control); for Plant response rating, Soybean: scale 0 to 100
Summary of the method: as §1

[3] = test system: goosegrass (Eleusine indica); details: for Goosegrass plant response rating: scale 0 to 100 (0 no effect, 100 complete control)
Summary of the method: as §1

[4] = test system: lambsquarters (Chenopodium album); details: for Lambsquarters plant response rating: scale 0 to 100 (0 no effect, 100 complete control)
Summary of the method: as §1

[5] = test system: yellow nutsedge (Cyperus esculentus); details: for Nutsedge, Yellow plant response rating: scale 0 to 100 (0 no effect, 100 complete control)
Summary of the method: as §1

[6] = test system: bermudagrass (Cynodon dactylon); details: for Bermudagrass plant response rating: scale 0 to 100 (0 no effect, 100 complete control)
Summary of the method: as §1

[7] = test system: morningglory (Ipomoea coccinea); details: for Morningglory plant response rating: scale 0 to 100 (0 no effect, 100 complete control)
Summary of the method: as §1

[8] = test system: woolly cupgrass (Eriochloa villosa); details: for Cupgrass, Woolly plant response rating: scale 0 to 100 (0 no effect, 100 complete control)
Summary of the method: as §1

[9] = test system: Surinam grass (Brachiaria decumbens); details: for Surinam Grass plant response rating: scale 0 to 100 (0 no effect, 100 complete control)
Summary of the method: as §1

[10] = test system: common ragweed (Ambrosia elatior); details: for Ragweed plant response rating: scale 0 to 100 (0 no effect, 100 complete control)
Summary of the method: as §1

[11] = Preemergence, 16 g ai/ha, scale 0 to 100, 0 no effect, 100 complete control
[12] = Preemergence, 31 g ai/ha, scale 0 to 100, 0 no effect, 100 complete control
[13] = Preemergence, 62 g ai/ha, scale 0 to 100, 0 no effect, 100 complete control
[14] = Preemergence, 125 g ai/ha, scale 0 to 100
[15] = Postemergence, 250 g ai/ha, scale 0 to 100
[16] = Postemergence, 500 g ai/ha, scale 0 to 100

Structure (SMILES): COCc1nc(C2CC2)nc(N)c1Br [Compound 11]
- Plant response rating (scale of 0 to 100), Velvetleaf ([1]; Postemergence, 16 g ai/ha): 20
- Plant response rating (scale of 0 to 100), Velvetleaf ([1]; Postemergence, 31 g ai/ha): 50
- Velvetleaf plant response rating ([1]; Postemergence, 62 g ai/ha): 60
- Velvetleaf plant response rating ([1]; Postemergence, 125 g ai/ha): 75
- Plant response rating, Velvetleaf [1, 11]: 0
- Plant response rating, Velvetleaf [1, 12]: 0
- Plant response rating, Velvetleaf [1, 13]: 0
- Plant response rating, Velvetleaf [1, 14]: 0
- Plant response rating (scale of 0 to 100), Foxtail, Giant ([2]; Postemergence, 16 g ai/ha): 0
- Plant response rating (scale of 0 to 100), Foxtail, Giant ([2]; Postemergence, 31 g ai/ha): 0
- Foxtail, Giant plant response rating ([2]; Postemergence, 62 g ai/ha): 0
- Foxtail, Giant plant response rating ([2]; Postemergence, 125 g ai/ha): 0
- Plant response rating, Foxtail, Giant [2, 11]: 0
- Plant response rating, Foxtail, Giant [2, 12]: 0
- Plant response rating, Foxtail, Giant [2, 13]: 0
- Plant response rating, Foxtail, Giant [2, 14]: 20
- Plant response rating (scale of 0 to 100), Soybean (soybean (Glycine max); Postemergence, 16 g ai/ha): 45
- Plant response rating (scale of 0 to 100), Soybean (soybean (Glycine max); Postemergence, 31 g ai/ha): 60
- Soybean plant response rating (soybean (Glycine max); Postemergence, 62 g ai/ha): 80
- Soybean plant response rating (soybean (Glycine max); Postemergence, 125 g ai/ha): 95
- Plant response rating, Soybean (soybean (Glycine max); Preemergence, 125 g ai/ha): 55
- Plant response rating (scale of 0 to 100), Goosegrass ([3]; Postemergence, 16 g ai/ha): 0
- Plant response rating (scale of 0 to 100), Goosegrass ([3]; Postemergence, 31 g ai/ha): 0
- Goosegrass plant response rating ([3]; Postemergence, 62 g ai/ha): 0
- Goosegrass plant response rating ([3]; Postemergence, 125 g ai/ha): 0
- Plant response rating, Goosegrass [3, 11]: 0
- Plant response rating, Goosegrass [3, 12]: 0
- Plant response rating, Goosegrass [3, 13]: 0
- Plant response rating, Goosegrass [3, 14]: 0
- Plant response rating (scale of 0 to 100), Lambsquarters ([4]; Postemergence, 16 g ai/ha): 50
- Plant response rating (scale of 0 to 100), Lambsquarters ([4]; Postemergence, 31 g ai/ha): 60
- Lambsquarters plant response rating ([4]; Postemergence, 62 g ai/ha): 70
- Lambsquarters plant response rating ([4]; Postemergence, 125 g ai/ha): 80
- Plant response rating, Lambsquarters [4, 11]: 0
- Plant response rating, Lambsquarters [4, 12]: 0
- Plant response rating, Lambsquarters [4, 13]: 40
- Plant response rating, Lambsquarters [4, 14]: 85
- Plant response rating (scale of 0 to 100), Nutsedge, Yellow ([5]; Postemergence, 16 g ai/ha): 0
- Plant response rating (scale of 0 to 100), Nutsedge, Yellow ([5]; Postemergence, 31 g ai/ha): 0
- Nutsedge, Yellow plant response rating ([5]; Postemergence, 62 g ai/ha): 0
- Nutsedge, Yellow plant response rating ([5]; Postemergence, 125 g ai/ha): 0
- Plant response rating, Nutsedge, Yellow [5, 11]: 0
- Plant response rating, Nutsedge, Yellow [5, 12]: 0
- Plant response rating, Nutsedge, Yellow [5, 13]: 0
- Plant response rating (scale of 0 to 100), Bermudagrass ([6]; Postemergence, 16 g ai/ha): 0
- Plant response rating (scale of 0 to 100), Bermudagrass ([6]; Postemergence, 31 g ai/ha): 0
- Bermudagrass plant response rating ([6]; Postemergence, 62 g ai/ha): 0
- Plant response rating, Bermudagrass ([6]; Postemergence, 125 g ai/ha, scale 0 to 100): 0
- Plant response rating, Bermudagrass [6, 11]: 0
- Plant response rating, Bermudagrass [6, 12]: 0
- Plant response rating, Bermudagrass [6, 13]: 0
- Plant response rating, Bermudagrass [6, 14]: 0
- Plant response rating (scale of 0 to 100), Morningglory ([7]; Postemergence, 16 g ai/ha): 0
- Plant response rating (scale of 0 to 100), Morningglory ([7]; Postemergence, 31 g ai/ha): 0
- Morningglory plant response rating ([7]; Postemergence, 62 g ai/ha): 0
- Morningglory plant response rating ([7]; Postemergence, 125 g ai/ha): 0
- Plant response rating, Morningglory [7, 11]: 0
- Plant response rating, Morningglory [7, 12]: 0
- Plant response rating, Morningglory [7, 13]: 0
- Plant response rating, Morningglory [7, 14]: 0
- Plant response rating (scale of 0 to 100), Cupgrass, Woolly ([8]; Postemergence, 16 g ai/ha): 0
- Plant response rating (scale of 0 to 100), Cupgrass, Woolly ([8]; Postemergence, 31 g ai/ha): 0
- Cupgrass, Woolly plant response rating ([8]; Postemergence, 62 g ai/ha): 0
- Cupgrass, Woolly plant response rating ([8]; Postemergence, 125 g ai/ha): 0
- Plant response rating, Cupgrass, Woolly [8, 11]: 0
- Plant response rating, Cupgrass, Woolly [8, 12]: 0
- Plant response rating, Cupgrass, Woolly [8, 13]: 0
- Plant response rating, Cupgrass, Woolly [8, 14]: 0
- Plant response rating (scale of 0 to 100), Surinam Grass ([9]; Postemergence, 16 g ai/ha): 0
- Plant response rating (scale of 0 to 100), Surinam Grass ([9]; Postemergence, 31 g ai/ha): 0
- Surinam Grass plant response rating ([9]; Postemergence, 62 g ai/ha): 0
- Surinam Grass plant response rating ([9]; Postemergence, 125 g ai/ha): 0
- Plant response rating, Surinam Grass [9, 11]: 0
- Plant response rating, Surinam Grass [9, 12]: 0
- Plant response rating, Surinam Grass [9, 13]: 100
- Plant response rating, Surinam Grass [9, 14]: 100
- Plant response rating (scale of 0 to 100), Ragweed ([10]; Postemergence, 16 g ai/ha): 15
- Plant response rating (scale of 0 to 100), Ragweed ([10]; Postemergence, 31 g ai/ha): 45
- Ragweed plant response rating ([10]; Postemergence, 62 g ai/ha): 65
- Ragweed plant response rating ([10]; Postemergence, 125 g ai/ha): 75
- Plant response rating, Ragweed [10, 11]: 0
- Plant response rating, Ragweed [10, 12]: 0
- Plant response rating, Ragweed [10, 13]: 20
- Plant response rating, Ragweed [10, 14]: 45

Structure (SMILES): CCOC(=O)c1nc(-c2ccc(Cl)cc2)nc(N)c1Br [Compound 37]
- Velvetleaf plant response rating ([1]; Postemergence, 62 g ai/ha): 0
- Velvetleaf plant response rating ([1]; Postemergence, 125 g ai/ha): 85
- Plant response rating, Velvetleaf [1, 15]: 90
- Plant response rating, Velvetleaf [1, 16]: 95
- Foxtail, Giant plant response rating ([2]; Postemergence, 62 g ai/ha): 0
- Foxtail, Giant plant response rating ([2]; Postemergence, 125 g ai/ha): 0
- Plant response rating, Foxtail, Giant [2, 15]: 40
- Plant response rating, Foxtail, Giant [2, 16]: 45
- Soybean plant response rating (soybean (Glycine max); Postemergence, 62 g ai/ha): 20
- Soybean plant response rating (soybean (Glycine max); Postemergence, 125 g ai/ha): 85
- Plant response rating, Soybean (soybean (Glycine max); Postemergence, 250 g ai/ha): 95
- Plant response rating, Soybean (soybean (Glycine max); Postemergence, 500 g ai/ha): 100
- Goosegrass plant response rating ([3]; Postemergence, 62 g ai/ha): 0
- Goosegrass plant response rating ([3]; Postemergence, 125 g ai/ha): 0
- Plant response rating, Goosegrass [3, 15]: 0
- Plant response rating, Goosegrass [3, 16]: 0
- Lambsquarters plant response rating ([4]; Postemergence, 62 g ai/ha): 0
- Lambsquarters plant response rating ([4]; Postemergence, 125 g ai/ha): 95
- Plant response rating, Lambsquarters [4, 15]: 95
- Plant response rating, Lambsquarters [4, 16]: 95
- Nutsedge, Yellow plant response rating ([5]; Postemergence, 62 g ai/ha): 0
- Nutsedge, Yellow plant response rating ([5]; Postemergence, 125 g ai/ha): 0
- Plant response rating, Nutsedge, Yellow [5, 15]: 0
- Plant response rating, Nutsedge, Yellow [5, 16]: 20
- Bermudagrass plant response rating ([6]; Postemergence, 62 g ai/ha): 0
- Bermudagrass plant response rating ([6]; Postemergence, 125 g ai/ha): 0
- Plant response rating, Bermudagrass [6, 15]: 0
- Plant response rating, Bermudagrass [6, 16]: 20
- Morningglory plant response rating ([7]; Postemergence, 62 g ai/ha): 0
- Morningglory plant response rating ([7]; Postemergence, 125 g ai/ha): 65
- Plant response rating, Morningglory [7, 15]: 80
- Plant response rating, Morningglory [7, 16]: 95
- Cupgrass, Woolly plant response rating ([8]; Postemergence, 62 g ai/ha): 0
- Cupgrass, Woolly plant response rating ([8]; Postemergence, 125 g ai/ha): 0
- Plant response rating, Cupgrass, Woolly [8, 15]: 0
- Plant response rating, Cupgrass, Woolly [8, 16]: 45
- Surinam Grass plant response rating ([9]; Postemergence, 62 g ai/ha): 0
- Surinam Grass plant response rating ([9]; Postemergence, 125 g ai/ha): 0
- Plant response rating, Surinam Grass [9, 15]: 0
- Plant response rating, Surinam Grass [9, 16]: 0
- Ragweed plant response rating ([10]; Postemergence, 62 g ai/ha): 0
- Ragweed plant response rating ([10]; Postemergence, 125 g ai/ha): 80
- Plant response rating, Ragweed [10, 15]: 90
- Plant response rating, Ragweed [10, 16]: 95
